Results reported in US20080214563A1, “Benzimidazole Thiophene Compounds As Plk Modulators” (priority 2005, published 2008).

Tests used:
[1] = test system: H460; assay: Methylene Blue Cell Growth Inhibition Assay, H460; assay type: cell-based; conditions: Homo sapiens, NCI-H460, 72 h, read-out: MEB H460 IC50
Description: (§1) Normal human foreskin fibroblasts (HFF), human colon (HCT116, RKO), lung (H460, A549) and breast (MCF7) tumor cell lines were cultured in high glucose DMEM (Life Technologies) containing 10% fetal bovine serum (FBS) at 37° C. in a humidified 5% CO2, 95% air incubator. Cells were harvested using trypsin/EDTA, counted using a haemocytometer, and plated in 100 μL of culture media per well, at the following densities, in a 96-well tissue culture plate (Falcon 3075): HFF 5,000 cells/well, HCT116 3,000 cells/well, RKO 2,500 cells/well, H460 2,500 cells/well, A549 5,000 cells/well, MCF7 4,000 cells/well. The next day, compounds were diluted in low glucose DMEM containing 100 μg/mL gentamicin, at twice the final required concentration, from 10 mM stock solutions in DMSO. 100 μL/well of these dilutions were added to the 100 μL of media currently in the assay plates. Medium containing 0.6% DMSO was added to control wells. The final concentration of DMSO in all wells was 0.3%. Cells were incubated at 37° C., 5% CO2 for 72 h. Medium was removed by aspiration. Cell biomass was estimated by staining cells with 80 μL per well methylene blue (Sigma M9140, 0.5% in 50:50 ethanol:water), and incubation at room temperature for 30-60 min. Stain was removed by aspiration and the plates rinsed by immersion in water, then air-dried. To release stain from the cells, 100 μL of solubilization solution was added (1% N-lauroyl sarcosine, Sodium salt, Sigma L5125, in PBS), and plates were shaken gently for about 30 min. Optical density at 620 nm was measured on a microplate reader. Percent inhibition of cell growth was calculated relative to vehicle treated control wells. Concentration of compound that inhibits 50% of cell growth (IC50) was interpolated using nonlinear regression (Levenberg-Marquardt) and the equation, y=Vmax*(1−(x/(K+x)))+Y2, where “K” was equal to the IC50.

[2] = test system: HCT116; assay: Methylene Blue Cell Growth Inhibition Assay, HCT116; assay type: cell-based; conditions: Homo sapiens, HCT-116, 72 h, read-out: MEB HCT116 IC50
Description: as §1

[3] = test system: Normal human foreskin fibroblasts (HFF); assay: Methylene Blue Cell Growth Inhibition Assay, HFF; assay type: cell-based; conditions: Fibroblast, 72 h, read-out: MEB HFF IC50
Description: as §1

[4] = Intravenous pharmacokinetics in CD-1 mouse; assay type: in vivo; conditions: plasma, iv bolus, male CD-1 mouse, dose 1.9-7.4 mg/kg per compound (Table 3)
Description: Preliminary investigation of the intravenous pharmacokinetics of compounds of invention were carried out in fed conscious CD-1 mouse. Compounds were formulated as 1-10 mg/kg, 5 mL/kg, 1-2 mg/mL solution (Table 3). Twenty one male mice (n=3 mice per time point) (˜30 g) received dose solution by bolus injection in the tail vein. The formulation for iv were either 20% beta cyclodextrin in saline pH 3.5-6 or PEG400:ethanol:saline (50:15:35 v/v). Blood samples (˜0.4 mL) were collected terminally by cardiac puncture following anesthetization in a CO2 chamber at 2, 15, 30, 60 min, 2, 4, and 6 h following iv administration. Blood samples were collected into tubes containing heparin and placed on crushed ice promptly after collection. Plasma was collected by centrifugation, frozen and stored at about −80° C. prior to analysis. Blood or plasma concentrations were determined by LC/MS/MS equipped with an electrospray ion source and using calibration curves for the appropriate matrix. The lower level of quantitation (LLQ) was 10 ng/mL. Blood or plasma concentration-time data were analyzed by non-compartmental methods using the computer program WinNonlin Professional (version 4.1). Area under the blood or plasma concentration-time curve (AUC) was calculated using the linear trapezoidal rule for each incremental trapezoid up to Cmax, and the log trapezoidal rule for each trapezoid thereafter. The terminal elimination rate constant (λz) was derived from the log-linear disposition phase of the concentration-time curve using least-squares regression analysis with visual inspection of the data to determine the appropriate number of terminal data points for regression analysis.
Following iv administration, the total body clearance (CL) was estimated. CL was calculated by dividing the dose by AUC(0−t). The clearance values were assigned as follows. Low <30 mL/min/kg, moderate 30-70 mL/min/kg, high >70 mL/min/kg. The assignment was based on hepatic blood flow i.e. hepatic blood flow of 0-30% low, 30-70% moderate and 70-100% high. The hepatic blood flow in mouse is ˜100 mL/min/kg.

[5] = test system: A549; assay: Methylene Blue Cell Growth Inhibition Assay, A549; assay type: cell-based; conditions: Homo sapiens, 72 h, read-out: MEB A549 IC50
Description: as §1

[6] = test system: MX-1; assay: Methylene Blue Cell Growth Inhibition Assay, MX-1; assay type: cell-based; conditions: Homo sapiens, MX1, 72 h, read-out: MEB MX-1 IC50
[7] = test system: RKO; assay: Methylene Blue Cell Growth Inhibition Assay, RKO; assay type: cell-based; conditions: Homo sapiens, 72 h, read-out: MEB RKO IC50
Description: as §1

[8] = test system: HCT-116; assay: Cell-Titer Glo Cell Growth Inhibition Assay, HCT116; assay type: cell-based; conditions: Homo sapiens, CellTiter-Glo, 72 h, read-out: CTG HCT116 IC50
Description: A549-L (human lung), BT474 (human breast), Colo 205 (human colon), H1299 (human lung), Hela (human cervix), HCT-116 (human colon), HN5 (human head and neck), HT29 (human colon), LNCap (human prostate), MCF7 (human breast), MDA-MB468 (human breast), MX-1 (human breast), RPMI 8226 (human peripheral blood), SKOV3 (human ovary) and P388 (murine leukemia) cell lines were cultured in RPMI1640 containing 10% fetal bovine serum at 37° C. in a 5% CO2 incubator. Cell lines were split into T75 flasks (Falcon #353136) two to three days prior to assay set up at density which yields approximately 70-80% confluency at time of harvest for assay. Cells were harvested using 0.25% trypsin with EDTA (Glibco/Invitrogen #25200-056), Cell counts were performed on cell suspensions using Trypan Blue exclusion staining, cells were then plated in 105 uL of culture media per well at the following densities in 96 well Costar #3916 black flat bottom plates: All human cell lines were plated at 500 cells/well. P388 were plated at 250 cells/well. All plates were placed at 5% CO2 37° C. overnight and then test compounds were added the following day. One plate of each cell type is treated with CellTiter-Glo (Promega #G7573) for a day 0 proliferation measurement and read as described below. The test compounds are prepared in clear U bottom polypropylene 96 well plates (Falcon #35-1190 with consecutive two fold dilutions. 9 uL of these dilutions was added into each well of the cell plates. The final concentration of DMSO in all wells is 0.15%. Cells were incubated at 37° C., 5% CO2 for 72 h. Following 72 h of incubation with compounds each plate was developed and read. CellTiter-Glo reagent was added to assay plates using a volume equivalent to the cell culture volume in the wells. Plates were shaken for approximately two minutes and incubated at room temperature for approximately 15 min and the chemiluminescent signal is read on the Victor V or Envison 2100 reader. […] Concentration of compound that inhibited 50% of cell growth (IC50) was analysis by 4 or 6 parameter fit of data using XLfit, value of no cell addition was subtracted from all samples for background.

[9] = test system: MCF7; assay: Methylene Blue Cell Growth Inhibition Assay, MCF7; assay type: cell-based; conditions: Homo sapiens, 72 h, read-out: MEB MCF7 IC50
Description: as §1

[10] = target: T1, PLK1 kinase domain (Homo sapiens, UniProt P53350); assay: Assay for Inhibition of PLK1 (33P SPA kinase assay); assay type: biochemical; conditions: 2 nM PLK1 kinase domain, 1 μM ATP; read-out: PLK1 pIC50 (converted)
T1 construct: made in house; host or cells: baculovirus infected T. ni cells
Description: All procedures were performed at 4° C. Cells were lysed in 50 mM HEPES, 200 mM NaCl, 50 mM imidazole, 5% glycerol; pH 7.5. The homogenate was centrifuged at 14K rpm in a SLA-1500 rotor for 1 h and the supernatant filtered through a 1.2 micron filter. The supernatant was loaded onto a Nickel chelating Sepharose (Amersham Pharmacia) column and washed with lysis buffer. Protein was eluted using 20%, 30% and 100% buffer B steps where buffer B is 50 mM HEPES, 200 mM NaCl, 300 mM imidazole, 5% glycerol; pH 7.5. Fractions containing PLK were determined by SDS-PAGE. Fractions containing PLK were diluted five-fold with 50 mM HEPES, 1 mM DTT, 5% glycerol; pH 7.5, then loaded on an SP Sepharose (Amersham Pharmacia) column. After washing the column with 50 mM HEPES, 1 mM DTT, 5% glycerol; pH 7.5, PLK was step eluted with 50 mM HEPES, 1 mM DTT, 500 mM NaCl; 5% glycerol; pH 7.5. PLK was concentrated using a 10 kDa molecular weight cutoff membrane and then loaded onto a Superdex 200 gel filtration (Amersham Pharmacia) column equilibrated in 25 mM HEPES, 1 mM DTT, 500 mM NaCl, 5% glycerol; pH 7.5. Fractions containing PLK were determined by SDS-PAGE. PLK was pooled, aliquoted and stored at −80° C. Samples were quality controlled using mass spectrometry, N-terminal sequencing and amino acid analysis.
B. Enzyme activity +/− inhibitors was determined as follows:
All measurements were obtained under conditions where signal production increased linearly with time and enzyme. Test compounds were added to white 384-well assay plates (0.1 μL for 10 μL and some 20 μl assays, 1 μL for some 20 μL assays) at variable known concentrations in 100% DMSO. DMSO (1-5% final, as appropriate) and EDTA (65 mM in reaction) were used as controls.
Reaction Mix (10 or 20 μL) was quickly added to each well immediately following addition of enzyme via automated liquid handlers and incubated 1-1.5 h at 22° C. The 20 μL enzymatic reactions were stopped with 50 μL of stop mix (50 mM EDTA, 4.0 mg/mL Streptavidin SPA beads in Standard Dulbecco's PBS (without Mg^2+ and Ca^2+), 50 μM ATP) per well. The 10 μL reactions were stopped with 10 μL of stop mix (50 mM EDTA, 3.0 mg/mL Streptavidin-coupled SPA Imaging Beads (“LeadSeeker”) in Standard Dulbecco's PBS (without Mg^2+ and Ca^2+), 50 μM ATP) per well. Plates were sealed with clear plastic seals, spun at 500×g for 1 min or settled overnight, and counted in Packard TopCount for 30 seconds/well (regular SPA) or imaged using a Viewlux imager (LeadSeeker SPA). Signal above background (EDTA controls) was converted to percent inhibition relative to that obtained in control (DMSO-only) wells.

T1 sequence (P53350 21-346): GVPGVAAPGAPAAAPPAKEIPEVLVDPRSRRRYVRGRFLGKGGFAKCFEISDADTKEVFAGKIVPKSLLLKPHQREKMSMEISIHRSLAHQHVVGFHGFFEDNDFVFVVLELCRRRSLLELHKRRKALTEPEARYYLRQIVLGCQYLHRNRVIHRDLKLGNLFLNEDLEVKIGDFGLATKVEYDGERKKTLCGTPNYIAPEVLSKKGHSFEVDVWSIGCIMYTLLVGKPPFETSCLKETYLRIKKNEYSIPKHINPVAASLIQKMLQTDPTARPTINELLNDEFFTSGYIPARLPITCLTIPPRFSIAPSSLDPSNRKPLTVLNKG

For `C[C@@H](Oc1cc(-n2cnc3cc(-c4cn[nH]c4)ccc32)sc1C(N)=O)c1ccccc1C(F)(F)F` [Example 5, 5-[5-(1H-Pyrazol-4-yl)-1H-benzimidazol-1-yl]-3-({(1R)-1-[2-(trifluoromethyl)phenyl]ethyl}oxy)-2-thiophenecarboxamide], which IC50 [1] is on record?
Its IC50 is < 100 nM.

What about the IC50 [2] of the same compound?
Its IC50 is < 100 nM.

And the IC50 [3]?
Its IC50 is 100 to 1000 nM.

What about the AUC(0-t) [4] of the same compound?
Its AUC(0-t) is 1370 ng·h/mL.

What about the clearance ([4]; read-out: Plasma CL) of the same compound?
The clearance was 23.1 mL/min/kg.

What about the IC50 [5] of the same compound?
Its IC50 is < 100 nM.

What about the IC50 [6] of the same compound?
Its IC50 is < 100 nM.

What about the IC50 [7] of the same compound?
The IC50 was < 100 nM.

And the IC50 [8]?
Its IC50 is < 100 nM.

What does the source list for `COc1cc2ncn(-c3cc(OC(C)c4ccccc4Cl)c(C(N)=O)s3)c2cc1OC` (stereo not drawn) [PU4870 Ex 126, reference compound]?
IC50 [1]: < 100 nM; IC50 [2]: < 100 nM; IC50 [3]: 100 to 1000 nM; IC50 [9]: > 1000 nM; IC50 [5]: < 100 nM; IC50 [7]: < 100 nM

For `COc1cc2ncn(-c3cc(OC(C)c4ccccc4C(F)(F)F)c(C(N)=O)s3)c2cc1OC` (stereo not drawn) [PU4870 Ex 127, reference compound], which IC50 [1] is on record?
The IC50 was < 100 nM.

What about the IC50 [3] of the same compound?
The IC50 was > 1000 nM.

What about the IC50 [10] of the same compound?
Its IC50 is < 10 nM.

And the IC50 [9]?
Its IC50 is 100 to 1000 nM.

And the IC50 [5]?
The IC50 was < 100 nM.

And the IC50 [7]?
Its IC50 is < 100 nM.

What about the IC50 [8] of the same compound?
The IC50 was 100 to 1000 nM.

What does the source list for `COc1cc2c(cc1OCCCN1CCCC1=O)ncn2-c1cc(OCc2ccccc2C(F)(F)F)c(C(N)=O)s1` [PU4870 Ex 134, reference compound]?
IC50 [1]: > 1000 nM; IC50 [2]: > 1000 nM; IC50 [3]: > 1000 nM; IC50 [10]: 10 to 1000 nM; IC50 [9]: > 1000 nM; IC50 [5]: > 1000 nM; IC50 [7]: > 1000 nM; IC50 [8]: > 1000 nM

Which IC50 [1] does the source give for `NC(=O)c1sc(-n2cnc3cc(C(=O)NCCN4CCNC4=O)ccc32)cc1OCc1ccccc1C(F)(F)F` [PU4870 Ex 156, reference compound] here?
Its IC50 is > 1000 nM.

And the IC50 [2]?
Its IC50 is > 1000 nM.

What about the IC50 [3] of the same compound?
The IC50 was > 1000 nM.

What about the IC50 [10] of the same compound?
The IC50 was 10 to 1000 nM.

What about the IC50 [9] of the same compound?
The IC50 was > 1000 nM.

And the IC50 [7]?
The IC50 was > 1000 nM.
